# Patent US10604739B2, “Cardiomyocyte production” (Cellular Dynamics International, Inc., priority 2009, dated 2020)
# Experiments:
# Format in all cases: cell-based, human
# iPS6.1-MRB cells = assay: iPS-MRB 1 L spinner qualification runs with and without HGF; conditions: for CM/L (millions) / Purity (% RFP+): +HGF, 1 L spinner flask
# Procedure: IPS-MRB cells were maintained on Matrigel™ in TeSR medium (from Stem Cell Technologies) no later than when they would normally be ready to be passaged. IPS cells were grown in T-150 flasks throughout this example, but can be scaled for starting cells in other culture formats. Five T-150 flasks of iPS cells were harvested: media were aspirated and cells were incubated with 12 mL room temperature TrypLe™ (Invitrogen), a recombinant typsin-like enzyme, at 37° C. for 7 minutes. The cells were then transferred to five 50 ml conical tubes (one tube for each T-150 flask) containing 12 ml DMEM/F12 (GIBCO) with 10% fetal calf serum (FCS) (Chemicon). The cells were then pelleted at 1200 rpm for 5 minutes and supernatant aspirated. The pellet was resuspended in 10 mL aggregate promotion medium (TeSR medium containing 25 μg/ml Gentamicin, 1 μM H1152, and with or without 50 ng/ml human recombinant HGF). The resuspended pellet were combined into a single 250 ml conical tube (allowing volume for later dilution), if necessary. Cells were counted using CEDEX HiRES cell counter and then diluted to 1.0×10^6 cells/mL. Each 500 mL diluted cell stock was dispensed into one 1 L spinner flask (leaving room in spinner flasks for later dilution) and the flasks were placed on magnetic stir platform with a speed of 50 RPM (both side caps were loosed by two full turns to allow gas transfer).
# On the next day (Day 1), flasks containing the cells were set in cell culture hood and suspended aggregate allowed to settle to the bottom of the flasks for 30 minutes. The spent media were aspirated using a 2 mL aspirating pipet with approximately 100 mL left in the flasks (if films of cells form on bottom after setting, shake flask back and forth in each direction to break them up before adding medium). Aggregate transition medium (50% TeSR medium, 45% DMEM containing GlutaMax™, 5% ES-qualified FCS, 25 μg/ml Gentamicin, 1 μM H1152, and with or without 50 ng/ml HGF) were added to the flasks using Pipeline machine to bring to the original volume. The flasks were returned to the stirring platform inside a 7% CO2 incubator and the agitator was started to operate at 50±1 RPM (both side caps were loosed by two full turns to allow gas transfer).
# On Day 2, flasks containing the cells were set in cell culture hood and suspended aggregate allowed to settle to the bottom of the flasks for 15 minutes. The spent media were aspirated with approximately 100 mL left in the flasks. Aggregate suspension were gently mixed in flasks, and cardiac induction medium (90% TeSR medim, 10% ES-qualified FCS, 25 μg/ml Gentamicin, 50 ng/ml human recombinant bFGF, and with or without 50 ng/ml human recombinant HGF) were added to each flask to 1 L (2× dilution) with Pipeline machine. The flasks were returned to the stirring platform inside a 7% CO2 incubator and the agitator was started to operate at 50±1 RPM (both side caps were loosed by two full turns to allow gas transfer).
# On Day 3, flasks containing the cells were set in cell culture hood and suspended aggregate allowed to settle to the bottom of the flasks for 15 minutes. The spent media were aspirated with approximately 100 mL left in the flasks. Spinner flasks were shaken back and forth to break large clumps. Cardiac induction medium were added back to each flask to bring back to the original volume for Days 3-7; cardiac maintenance medium were exchanged instead for Days 8, 10, 12. After every media exchange, the flasks were returned to the stirring platform inside a 7% CO2 incubator and the agitator was started to operate at 50±1 RPM (both side caps were loosed by two full turns to allow gas transfer).
# Cell cultures were analyzed on Day 14 by total cell counting per flask at harvest, cTNT or RFP purity at harvest. Aggregate count was also carried on Day 2 and final stage and aggregate pictures were taken.
# Three qualification runs were performed to confirm at large scale and with iPS6.1-MRB cells that removal of HGF has no measurable effect. […]
# iPS6.1 cells = assay: iPS6.1 Growth Factor Titration #1; conditions: HGF 0, 5, 20, 50, 150 ng/mL
# Procedure: (§1) Aggregate formation and cardiac induction procedures of those iPS cells at different initial densities were performed essentially the same as described in Examples 4 except different concentrations of human HGF (hHGF) and FGF were applied to Aggregate Formation Medium, Aggregate Transition Medium and Cardiac Induction Medium.
# Conditions without FGF had virtually no surviving aggregates and no measurable cardiomyocytes (FIGS. 29A-B). On the other hand, all conditions with FGF yielded cardiomyocytes independent of HGF concentration (FIGS. 29A-B).
# H9-TGZ cells = assay: H9-TGZ Growth Factor Titration #2 (repeat); conditions: FIGS. 32A-C
# Procedure: as §1
# Due to the issues with aggregate formation noted above, the H9-TGZ growth factor titration experiment was repeated. […] However, it is important to note that despite the overall poor performance of the cultures, the usual and expected decrease in performance at low FGF level was still discernable (FIGS. 32A-C).
substance,measurement,setting,value
"HGF: human recombinant HGF (hepatic growth factor), R&D systems",Effect of HGF addition on yields,"iPS6.1-MRB cells; ""normal"" run, 1 L spinner",no effect
same,CM/L (millions),"iPS6.1-MRB cells; Run #1 (Jun. 6, 2009)",48.9 millions
same,Purity (% RFP+),"iPS6.1-MRB cells; Run #1 (Jun. 6, 2009)",6.6%
same,CM/L (millions),"iPS6.1-MRB cells; Run #2 (Jun. 10, 2009)",17.5 millions
same,Purity (% RFP+),"iPS6.1-MRB cells; Run #2 (Jun. 10, 2009)",3.7%
same,CM/L (millions),"iPS6.1-MRB cells; Run #3 (Jun. 14, 2009)",10.0 millions
same,Purity (% RFP+),"iPS6.1-MRB cells; Run #3 (Jun. 14, 2009)",2.6%
same,Trend in cardiomyocyte yield or iPS:CM ratio across HGF concentrations,iPS6.1 cells,no consistent trend in cardiomyocyte yield or iPS:CM ratio
same,Trend of culture performance across HGF concentrations,H9-TGZ cells,no observable trend of culture performance
